For one test, the system named is OGT. The note with it: known OGT inhibitor; ref [31]; read-out: reported IC50; cited from earlier work. The text has this:
Its interesting biology motivated us to further focus on the validation of RBL-2 O-GlcNAcylation in the following work. Kinetic signals of the GlcNAcylation were collected to fully understand the O-GlcNAcylation of RBL-2_420–422.

The test system of test [1] is purified m-OGT. Description: Inhibition of RBL-2_410–422 O-GlcNAcylation by known OGT inhibitor on microarray. The format is biochemical, human. The note with it: 200 μM ST045849, purified m-OGT (0.2 μg/μL), 1 mM UDP-GlcNAc. The procedure:
(§1) One step OGT purification was performed using His60 Ni Gravity Flow Columns (Clontech) according to the manufacturer’s instructions. Briefly, the nickel column was equilibrated with a buffer containing 50 mM sodium phosphate, 300 sodium chloride, 20 mM imidazole, and pH 7.4, followed by incubation with cell lysate containing His tag OGT for 1h at 4°C. After washing several times using buffer containing 50 mM sodium phosphate, 300 sodium chloride, 40 mM imidazole, and pH 7.4, the recombinant OGT was eluted using elution buffer containing 50 mM sodium phosphate, 300 mM sodium chloride, 300 mM imidazole, and pH 7.4. […]
(§2) Peptide O-GlcNAcylation was assessed using PamChip 4 microarray chips with a PamStation 12 instrument (Pamgene international, The Netherlands). […] O-GlcNAcylation of each peptide was detected by a fluorescent signal which was produced by an FITC conjugated antibody bound to the O-GlcNAc moiety on the peptide.
(§3) Image analysis was performed using BioNavigator 6 software (Pamgene international, The Netherlands). Briefly, each image was quantified by automated array grid finding and subsequent quantification of signal and local background for each individual spot. In this work, the signal median-minus-background value was used as the quantitative parameter for the O-GlcNAcylation of the peptide. […]

A further test concerns s-OGT. As to the kind of experiment: O-GlcNAcylation on kinase substrate peptide microarray, s-OGT. The format is biochemical, human. Particulars: bacterial lysate containing s-OGT (7 μg/μL), 1 mM UDP-GlcNAc, 50 mM Tris-HCl pH 7.5, 30°C, FITC antibody fluorescence, corrected for signal without UDP-GlcNAc. The procedure:
(§4) Plasmids encoding s-OGT, m-OGT, and nc-OGT are generous gifts from John A. Hanover (National Institute of Health, USA). OGT overexpression was carried out as previously described. All the plasmids were transformed into E.coli BL21 (DE3) competent cells to produce a cell lysate containing OGT for use or for further purification. Briefly, inoculated a single colony into 50 ml of LB broth media containing 50 μg/ml ampicillin and cells were grown overnight at 37°C with vigorous shaking. 50 mL of the start culture was added into 1L LB broth media containing 50 μg/mL ampicillin and it was incubated with shaking at 200 rpm at 37°C until A600 reached 0.4–0.6. After the culture was cooled to room temperature, 0.5 mM IPTG was added into the culture to induce protein expression. After 16 hours, the cells were collected by centrifugation for 10 min at 4000 RPM at 4°C. The pellets were lysed in lysis buffer containing 20 mM Tris-HCl, pH 7.5, 1 mg/mL lysome, 0.1% triton x-100 and complete mini EDTA-free protease inhibitor cocktail on ice for 10 min and the lysate was sonicated until the DNA was completely sheared. After centrifugation for 10 min at 12000 rpm at 4°C, the supernatant was carefully transferred into a clean tube and was ready for the array assay or for further purification. Protein expression was determined by coomassie blue staining and western blotting using an anti-OGT antibody.
(§5) Peptide O-GlcNAcylation was assessed using PamChip 4 microarray chips with a PamStation 12 instrument (Pamgene international, The Netherlands). The OGT enzyme reaction was prepared essentially as described[26] with minor modifications. Briefly, before addition of the enzyme reaction, the microarray was blocked with blocking buffer (1% BSA in TBS). After 30 cycles (2 cycles/min) blocking, the blocking buffer was aspirated and the microarray was incubated with 40 μL of the enzyme reaction containing OGT (lysate or purified), OGT reaction buffer (50 mM Tris—HCl, pH 7.5;1 mM DTT;12.5 mM MgCl2), a 1:1 pre-incubated mixture of anti-O-GlcNAc and FITC conjugated secondary antibody, and the sugar donor UDP-GlcNAc or water as a control for 480 cycles (2 cycles/min) at 30°C. The microarray was run in parallel by pumping the reaction up and down through the porous membrane at every cycle and a tiff image was obtained at every 20 cycles by a CCD camera inside the PamStation. O-GlcNAcylation of each peptide was detected by a fluorescent signal which was produced by an FITC conjugated antibody bound to the O-GlcNAc moiety on the peptide.
(§6) Image analysis was performed using BioNavigator 6 software (Pamgene international, The Netherlands). Briefly, each image was quantified by automated array grid finding and subsequent quantification of signal and local background for each individual spot. In this work, the signal median-minus-background value was used as the quantitative parameter for the O-GlcNAcylation of the peptide.
(§7) Dynamic peptide microarray (PamChip) technology has been successfully and widely used for kinase activities profiling in the last decade. In the present work, we describe, for the first time, the utility of this peptide microarray format for the identification of human OGT activity. Due to the fact that O-GlcNAcylation and phosphorylation may occur at the same or proximal amino acids on the same protein [9], a peptide microarray of 144 peptides derived from different kinase substrates (S1 Appendix) was selected for an initial test. […] O-GlcNAcylation of peptides in each individual spot was detected by a fluorescent signal produced by the FITC labelled antibody recognizing the O-GlcNAcylated amino acids of converted peptides. Kinetic activity was measured through scanning the signal at regular intervals.
(§8) Fig 2 Identification of human OGT substrates from a kinase substrate and nuclear hormone receptor interaction peptide microarray. […]

Test [2] concerns purified m-OGT. As to the kind of experiment: Ala scan of RBL-2_410–422 on peptide microarray. It is filed as biochemical, human. The note with it: microarray; 1 mM UDP-GlcNAc, 0.2 μg/μL purified m-OGT. The method, then:
One step OGT purification was performed using His60 Ni Gravity Flow Columns (Clontech) according to the manufacturer’s instructions. Briefly, the nickel column was equilibrated with a buffer containing 50 mM sodium phosphate, 300 sodium chloride, 20 mM imidazole, and pH 7.4, followed by incubation with cell lysate containing His tag OGT for 1h at 4°C. After washing several times using buffer containing 50 mM sodium phosphate, 300 sodium chloride, 40 mM imidazole, and pH 7.4, the recombinant OGT was eluted using elution buffer containing 50 mM sodium phosphate, 300 mM sodium chloride, 300 mM imidazole, and pH 7.4. The eluted fraction was concentrated through a 100,000 Da molecular weight cut off Amicon unit by centrifugation 10 min at 5000 RPM at 4°C.
as §5, §6
Synthesis of all the peptides was achieved by following a standard Fmoc SPPS strategy on a Symphony Multiple Peptide Synthesizer and starting from rink amide resin. The following Fmoc amino acids were used: Fmoc-Cys(Trt)-OH, Fmoc-Gly-OH, Fmoc-Lys(Boc)-OH, Fmoc-Glu(Otbu)-OH, Fmoc-Asn(Trt)-OH, Fmoc-Ser(tBu)-OH, Fmoc-Thr(tBu)-OH, Fmoc-Ala-OH, Fmoc-Pro-OH, Fmoc-Val-OH. Deprotection was performed using 20% piperidine in DMF, and coupling was performed using 1:0.9:2 amino acid/ HBTU/DIPEA in DMF. After completion of the synthesis, the protected peptidyl resins were incubated with a 10 mL mixture of TFA (trifluoroacetic acid): H2O: triisopropylsilane (TIPS): 1, 2-ethanedithiol (EDT) (9:0.5:0.25:0.25, v/v/v/v) and allowed to stir for 2 h at room temperature under a nitrogen atmosphere. The cleaving mixture was filtered and the resin was washed with TFA (2 mL) and DCM (4 mL). The residue was precipitated by treatment of precooled diethyl ether and centrifugation. Two times washing and centrifugation yielded the crude products in a pellet. The precipitated peptides were dissolved in water, frozen, and lyophilized. All products were stored at -20°C. Crude peptide analysis was carried out by LC-MS.
To further confirm this and investigate the role of this and surrounding amino acid residues in our activity based assay, we resynthesized the RBL-2 peptide present on the microarray and performed an Ala scan, thus replacing of all the possible O-GlcNAc sites (Ser and Thr) in RBL-2_420–422 (Fig 4A). To immobilize the peptides on the chip, all the peptides were prepared with an extra CG at the NH2 terminal to allow immobilization on the maleimide-based chip surface. […]

The subject of test [3] is m-OGT. As to the kind of experiment: Validation of RBL-2 peptide O-GlcNAcylation on microarray, dependency on UDP-GlcNAc and m-OGT lysate. It is filed as biochemical, human. The procedure: as §4, with “After 16 hours, the cells were collected by centrifugation for 10 min at 4000 RPM at 4°C. The pellets were lysed in lysis buffer containing 20 mM Tris-HCl, pH 7.5, 1 mg/mL lysome, 0.1% triton x-100 and complete mini EDTA-free protease inhibitor cocktail on ice for 10 min and the lysate was sonicated until the DNA was completely sheared.” left out
Peptide O-GlcNAcylation was assessed using PamChip 4 microarray chips with a PamStation 12 instrument (Pamgene international, The Netherlands). […] O-GlcNAcylation of each peptide was detected by a fluorescent signal which was produced by an FITC conjugated antibody bound to the O-GlcNAc moiety on the peptide. […]

The subject of the next test is nc-OGT. Description: O-GlcNAcylation on kinase substrate peptide microarray, nc-OGT. It is filed as biochemical, human. The note with it: bacterial lysate containing nc-OGT (7 μg/μL), 1 mM UDP-GlcNAc, 50 mM Tris-HCl pH 7.5, 30°C, FITC antibody fluorescence, corrected for signal without UDP-GlcNAc. The procedure: as §4, §5, §6, §7, §8
The test system of test [4] is OGT (s-OGT, m-OGT, nc-OGT). Description: O-GlcNAcylation on kinase substrate peptide microarray, three isoforms taken together. Particulars: peptide microarray screening. The format is biochemical, human. The method, then:
as §4, with “The pellets were lysed in lysis buffer containing 20 mM Tris-HCl, pH 7.5, 1 mg/mL lysome, 0.1% triton x-100 and complete mini EDTA-free protease inhibitor cocktail on ice for 10 min and the lysate was sonicated until the DNA was completely sheared.” left out
as §2, §6
Dynamic peptide microarray (PamChip) technology has been successfully and widely used for kinase activities profiling in the last decade. […] Kinetic activity was measured through scanning the signal at regular intervals. […]

For test [5], the system named is m-OGT. Description: O-GlcNAcylation on kinase substrate peptide microarray, m-OGT. It is filed as biochemical, human. The note with it: bacterial lysate containing m-OGT (7 μg/μL), 1 mM UDP-GlcNAc, 50 mM Tris-HCl pH 7.5, 30°C, FITC antibody fluorescence, corrected for signal without UDP-GlcNAc. The method, then:
as §4, §5, §6, §7, §8

Test [6] has as its system purified m-OGT. Description: Km of UDP-GlcNAc in RBL-2 peptide O-GlcNAcylation on microarray. The format is biochemical, human. Particulars: fixed saturating RBL-2_410–422 peptide, purified m-OGT (0.2 μg/μL), UDP-GlcNAc 0–2 mM, Michaelis-Menten fit; read-out: Km of UDP-GlcNAc donor. The method, then: as §1, §2, §3

Data on 3 compounds can be found in article PMC4784888, “Activity Based High-Throughput Screening for Novel O-GlcNAc Transferase Substrates Using a Dynamic Peptide Microarray” (PLoS ONE, 2016).

For orientation: IC50 means the concentration that gives 50% inhibition. As a reminder, the Km is the substrate concentration at which the rate is half of its maximum.

Where a name gives a salt, the structure may show the parent alone.

Regarding `O=C(O)C1CC(=O)N(CCC23CC4CC(CC(C4)C2)C3)C(=Nc2ccc(Cl)cc2)S1` (stereo not shown) [ST045849, 3-(2-adamantanylethyl)-2-[(4-chlorophenyl)azamethylene]-4-oxo-1,3-thiazaperhyd roine-6-carboxylic acid], in the test on OGT, the IC50 was around 50 µM. In addition, in the test on purified m-OGT [1], the “inhibition of RBL-2 peptide O-GlcNAcylation” value came out at 80%.
For the compound “KENSPCVTPVSTA [RBL-2_410_422, kinase substrate microarray peptide …]”, the “OGT isoforms activity, s” value with s-OGT is “P (Signal greater than 5% of the highest signal was defined as positive (P))”. The “OGT activity of wild type compared with C415A, microarray” value in the test on purified m-OGT [2] is “dramatic decrease of activity comparing with C415A peptide”. Also, the “O-GlcNAcylation versus amount of m-OGT lysate” value in the test on m-OGT [3] (bacterial lysate containing m-OGT 0, 1.7, 3.5, 7 μg/μL, 1 mM UDP-GlcNAc) was “increased with increasing amounts of bacterial lysate containing recombinant m-OGT”. Further, in the test with m-OGT [3] (bacterial lysate containing m-OGT (7 μg/μL), UDP-GlcNAc 0–10 mM), the “O-GlcNAcylation rate versus UDP-GlcNAc concentration” value was “increased upon the addition of increasing concentrations of the donor UDP-GlcNAc”. Also, in the test with nc-OGT, the “OGT isoforms activity, nc” value is reported as “P (Signal greater than 5% of the highest signal was defined as positive (P))”. Moreover, the “Rank as hit in screening assay” value in test [4] was “best hit in our screening assay”. The “OGT isoforms activity, m” value with m-OGT [5] is listed as “P (Signal greater than 5% of the highest signal was defined as positive (P))”.
Take `CC(=O)N[C@H]1[C@@H](OP(=O)(O)OP(=O)(O)OC[C@H]2O[C@@H](n3ccc(=O)[nH]c3=O)[C@H](O)[C@@H]2O)O[C@H](CO)[C@@H](O)[C@@H]1O` [UDP-GlcNAc, Uridine 5′-diphospho-N-acetylglucosamine sodium salt]: in the test with purified m-OGT [6], the Km turned out to be 24 µM.
